Square brackets hold non-standard residues; d marks the D form. Ends that are not written are not given here. Lys(Me3) = C[N+](C)(C)CCCC[C@H](N)C(=O)O

The results in this text go back to PMC6220849, “Mechanistic and structural studies of KDM‐catalysed demethylation of histone 1 isotype 4 at lysine 26” (Febs Letters, 2018).

Assay type in all cases: biochemical, human
One experiment has as its system KDM4E (KDM4E1–337). Description: MALDI-TOF MS demethylation activity assay, KDM4E. Also noted: key: 🟢: Indicates that clear demethylation activity was observed; 🟡: Indicates that low level demethylation activity was observed (<10% conversion after 1 h); 🔴: Indicates no activity under the stated conditions (1 μM KDM, 10 μM peptide); 🟡*: *Indicates demethylation activity was only observed with 5 μM KDM. Particulars: peptide as substrate, 1 μM KDM, 10 μM peptide, 50 mM HEPES pH 7.5, Fe(II) 10 μM, ascorbate 100 μM, 2OG 200 μM, 1 h at 37 °C. On the procedure: (§1) Recombinant proteins (1 μM) were incubated with peptides (10 μM, sequences are given in Table S1) in 50 mM HEPES, pH 7.5 with addition of Fe(II) ammonium sulfate (10 μM), sodium ascorbate (100 μM) and 2‐oxoglutaric acid (200 μM). Reactions with KDM3A and KDM7A also contained 1 mM tris(2‐carboxyethyl)phosphine hydrochloride. No enzyme reactions were included as negative controls. Reactions were incubated for 1 h at 37 °C before being quenched with 1 : 1 (v/v) methanol. Analysis was carried out by MALDI‐TOF MS (Bruker, Billerica, MA, USA), with demethylation observed as mass shifts of 14 Da.
(§2) The propensity of human JmjC KDMs to catalyse demethylation at H1.4K26 was investigated using recombinant forms of the catalytic domains of representatives of each human JmjC KDM subfamily (KDM2‐7) and fragment peptides (Table S1) 37. Three peptides with identical sequences, corresponding to residues 18–32 of histone H1.4 (H2N‐[…]‐CONH2), but containing either a N ^ε‐tri‐, di‐ or monomethyllysine at K26 were synthesised (Fig. 1B and Table S1). Activity assays monitoring JmjC KDM‐catalysed demethylation of the peptides were then carried out; samples were prepared containing each peptide, 2‐oxoglutarate (2OG), ferrous iron, ascorbate and individual representatives from each JmjC KDM subfamily (KDM2A 38, KDM3A 21, KDM4E 22, KDM5C 39, 40, KDM6B 41, KDM7A 42).

The subject of the next experiment is KDM7A (KDM7A38–480). Description: MALDI-TOF MS demethylation activity assay, KDM7A. Also noted: key to demethylation activity on methylated H1.4 peptide: 🟢: Indicates that clear demethylation activity was observed; 🟡: Indicates that low level demethylation activity was observed (<10% conversion after 1 h); 🔴: Indicates no activity under the stated conditions (1 μM KDM, 10 μM peptide); 🟡*: *Indicates demethylation activity was only observed with 5 μM KDM. Particulars: peptide as substrate; MALDI-TOF MS; 1 μM KDM, 10 μM peptide, 50 mM HEPES pH 7.5, Fe(II) 10 μM, ascorbate 100 μM, 2OG 200 μM, 1 mM TCEP, 1 h at 37 °C. On the procedure: as §1, §2
(§3) N ^ε‐Trimethylated H3K4 binds to the plant homeobox domain of KDM7B, targeting the N ^ε‐dimethyllysine at H3K9 to the catalytic domain, and thus promoting demethylation 29, 44. To test whether similar targeting may occur with H1.4, promoting activity at H1.4K26, an H1.4 peptide was synthesised containing di‐N ^ε‐methyllysine at K26 and tri‐N ^ε‐methyllysine at K21 (i.e. at the equivalent position in the sequence to K4 in the H3 peptide, Fig. 1B, Table S1). Monomethylation at H1.4K21 has previously been observed by proteomic mass spectrometry 45. With the aim of enhancing activity, the enzyme concentration was increased from 1 μM to 5 μM, and time course analyses were conducted with both KDM7A and KDM7B, both with the new peptide (H1.4(18–32)K21me3K26me2) and the H1.4 peptides methylated only at K26 (Fig. 2B). […] Thus, it appears unlikely that N ^ε‐trimethylation at H1.4K21 promotes demethylation at H1.4K26 by KDM7B.

The next experiment relates to KDM4D (KDM4D1–359). In words: MALDI-TOF MS demethylation activity assay, KDM4D. On the set-up: key: 🟢: Indicates that clear demethylation activity was observed; 🟡: Indicates that low level demethylation activity was observed (<10% conversion after 1 h); 🔴: Indicates no activity under the stated conditions (1 μM KDM, 10 μM peptide); 🟡*: *Indicates demethylation activity was only observed with 5 μM KDM. Particulars: peptide as substrate, 1 μM KDM, 10 μM peptide, 50 mM HEPES pH 7.5, Fe(II) 10 μM, ascorbate 100 μM, 2OG 200 μM, 1 h at 37 °C. On the procedure: as §1
(§4) Given the activity observed with KDM4E and KDM7A, we decided to investigate the intra‐subfamily conservation of this demethylation activity. The demethylation activity of the other subfamily members (KDM4A‐D and KDM7B) was therefore screened. […] Note that as with H3K9, demethylation of the monomethylated H1.4K26 peptide was only observed with KDM4E, under the stated conditions 24.

A further experiment concerns KDM5C (KDM5C1–765). In words: MALDI-TOF MS demethylation activity assay, KDM5C. Particulars: peptide as substrate, 1 μM KDM, 10 μM peptide, 50 mM HEPES pH 7.5, Fe(II) 10 μM, ascorbate 100 μM, 2OG 200 μM, 1 h at 37 °C. On the set-up: key: 🟢: Indicates that clear demethylation activity was observed; 🟡: Indicates that low level demethylation activity was observed (<10% conversion after 1 h); 🔴: Indicates no activity under the stated conditions (1 μM KDM, 10 μM peptide); 🟡*: *Indicates demethylation activity was only observed with 5 μM KDM. On the procedure:
as §1, §2

The subject of another experiment is KDM7B (PHF8; KDM7B1–447). In words: MALDI-TOF MS demethylation activity assay, KDM7B (PHF8). On the set-up: key to demethylation activity on methylated H1.4 peptide: 🟢: Indicates that clear demethylation activity was observed; 🟡: Indicates that low level demethylation activity was observed (<10% conversion after 1 h); 🔴: Indicates no activity under the stated conditions (1 μM KDM, 10 μM peptide); 🟡*: *Indicates demethylation activity was only observed with 5 μM KDM. Particulars: peptide as substrate; MALDI-TOF MS; 1 μM KDM (* = only with 5 μM KDM), 10 μM peptide, 50 mM HEPES pH 7.5, Fe(II) 10 μM, ascorbate 100 μM, 2OG 200 μM, 1 h at 37 °C. On the procedure: as §1, §4, §3

The subject of the next experiment is KDM4B (KDM4B1–359). Description: MALDI-TOF MS demethylation activity assay, KDM4B. Particulars: peptide as substrate, 1 μM KDM, 10 μM peptide, 50 mM HEPES pH 7.5, Fe(II) 10 μM, ascorbate 100 μM, 2OG 200 μM, 1 h at 37 °C. Also noted: key: 🟢: Indicates that clear demethylation activity was observed; 🟡: Indicates that low level demethylation activity was observed (<10% conversion after 1 h); 🔴: Indicates no activity under the stated conditions (1 μM KDM, 10 μM peptide); 🟡*: *Indicates demethylation activity was only observed with 5 μM KDM. On the procedure: as §1, §4

Another experiment relates to KDM2A (KDM2A1–557). Description: MALDI-TOF MS demethylation activity assay, KDM2A. Also noted: key: 🟢: Indicates that clear demethylation activity was observed; 🟡: Indicates that low level demethylation activity was observed (<10% conversion after 1 h); 🔴: Indicates no activity under the stated conditions (1 μM KDM, 10 μM peptide); 🟡*: *Indicates demethylation activity was only observed with 5 μM KDM. Particulars: peptide as substrate, 1 μM KDM, 10 μM peptide, 50 mM HEPES pH 7.5, Fe(II) 10 μM, ascorbate 100 μM, 2OG 200 μM, 1 h at 37 °C. On the procedure: as §1, §2

In the case of “TPVKKKAR[Lys(Me3)]SAGAAK [H1.4(18–32)K26me3, peptide of residues 18–32 of histone H1.4 with N ε-trimethyllysine at K26]”, the “demethylation activity on methylated H1.4 peptide” value was “🟢” with KDM4E (KDM4E1–337); “🔴” in the experiment on KDM7A (KDM7A38–480); “🟢” with KDM4D (KDM4D1–359); “🔴” with KDM5C (KDM5C1–765); “🔴” in the experiment on KDM7B (PHF8; KDM7B1–447); “🟢” in the experiment with KDM4B (KDM4B1–359). Further, in the experiment on KDM2A (KDM2A1–557), the “demethylation activity on methylated H1.4 peptide” value is recorded as “🔴”.
